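48-hour exposure; five concentrations; linearly interpolated endpoints. GI50 = concentration required for 50% inhibition of growth.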 The source made the active and inactive calls. No stated cut-off is given here; in the data, active = GI50 up to about 1.1 µM and inactive = higher.
Legend:
Test in all cases: NCI-60 cell line screen, 48 h
SR = tested on: SR
M19-MEL = tested on: M19-MEL
A498 = tested on: A498
CCRF-CEM = tested on: CCRF-CEM
SF-268 = tested on: SF-268
MOLT-4 = tested on: MOLT-4
OVCAR-8 = tested on: OVCAR-8
SW-620 = tested on: SW-620
U-251 = tested on: U-251
LOX IMVI = tested on: LOX IMVI
HOP-62 = tested on: HOP-62
SK-MEL-5 = tested on: SK-MEL-5
HCT-116 = tested on: HCT-116
RPMI-8226 = tested on: RPMI-8226
NCI-H460 = tested on: NCI-H460
SNB-19 = tested on: SNB-19
KM12 = tested on: KM12
K562 = tested on: K562
PC-3 = tested on: PC-3
MDA-MB-231 = tested on: MDA-MB-231

CCCCN/C(=N/C#N)NCc1ccccc1
GI50 (SR): > 100 µM (inactive) | GI50 (M19-MEL): > 100 µM (inactive) | GI50 (A498): > 100 µM (inactive) | GI50 (CCRF-CEM): > 100 µM (inactive) | GI50 (SF-268): > 100 µM (inactive) | GI50 (MOLT-4): > 100 µM (inactive) | GI50 (OVCAR-8): > 100 µM (inactive) | GI50 (SW-620): > 100 µM (inactive) | GI50 (U-251): > 100 µM (inactive) | GI50 (LOX IMVI): > 100 µM (inactive) | GI50 (HOP-62): > 100 µM (inactive) | GI50 (SK-MEL-5): > 100 µM (inactive) | GI50 (HCT-116): > 100 µM (inactive) | GI50 (RPMI-8226): > 100 µM (inactive) | GI50 (NCI-H460): > 100 µM (inactive) | GI50 (SNB-19): > 100 µM (inactive) | GI50 (KM12): > 100 µM (inactive)

Cn1cc2ccccc2c1-c1nc(F)nc(Oc2ccc3c(c2)CC[C@@H]2C3CC[C@@]3(C)C2CC[C@@H]3O)n1 (stereo partly drawn)
GI50 (K562): 4.73 µM (inactive) | GI50 (SR): 3.36 µM (inactive) | GI50 (M19-MEL): 7.98 µM (inactive) | GI50 (A498): 20.5 µM (inactive) | GI50 (CCRF-CEM): 3.08 µM (inactive) | GI50 (SF-268): 9.53 µM (inactive) | GI50 (MOLT-4): 4.07 µM (inactive) | GI50 (OVCAR-8): 7.45 µM (inactive) | GI50 (SW-620): 7.35 µM (inactive) | GI50 (U-251): 6.73 µM (inactive) | GI50 (LOX IMVI): 5.79 µM (inactive) | GI50 (HOP-62): 9.59 µM (inactive) | GI50 (SK-MEL-5): 12.8 µM (inactive) | GI50 (HCT-116): 11.7 µM (inactive) | GI50 (RPMI-8226): 5.94 µM (inactive) | GI50 (NCI-H460): 18.6 µM (inactive) | GI50 (SNB-19): 16.6 µM (inactive) | GI50 (KM12): 11.4 µM (inactive)

CCN(CC)CCCNc1ccc2nc(C)n3c4ccc(O)cc4c(=O)c1c23
GI50 (K562): 2.97 µM (inactive) | GI50 (M19-MEL): 10.6 µM (inactive) | GI50 (A498): 11.9 µM (inactive) | GI50 (CCRF-CEM): 1.79 µM (inactive) | GI50 (SF-268): 1.96 µM (inactive) | GI50 (MOLT-4): 0.301 µM (active) | GI50 (OVCAR-8): 1.95 µM (inactive) | GI50 (SW-620): 0.957 µM (active) | GI50 (U-251): 5.36 µM (inactive) | GI50 (LOX IMVI): 1.14 µM (inactive) | GI50 (HOP-62): 3.21 µM (inactive) | GI50 (SK-MEL-5): 10.3 µM (inactive) | GI50 (PC-3): 1.47 µM (inactive) | GI50 (HCT-116): 0.713 µM (active) | GI50 (RPMI-8226): 1.9 µM (inactive) | GI50 (NCI-H460): 0.838 µM (active) | GI50 (SNB-19): 6.7 µM (inactive) | GI50 (KM12): 3.61 µM (inactive)

C(/COc1cccnc1)=N\NC1=NCCN1
GI50 (K562): > 100 µM (inactive) | GI50 (SR): > 100 µM (inactive) | GI50 (M19-MEL): > 100 µM (inactive) | GI50 (A498): > 100 µM (inactive) | GI50 (CCRF-CEM): > 100 µM (inactive) | GI50 (SF-268): > 100 µM (inactive) | GI50 (MOLT-4): > 100 µM (inactive) | GI50 (OVCAR-8): > 100 µM (inactive) | GI50 (SW-620): > 100 µM (inactive) | GI50 (U-251): > 100 µM (inactive) | GI50 (LOX IMVI): > 100 µM (inactive) | GI50 (HOP-62): > 100 µM (inactive) | GI50 (SK-MEL-5): > 100 µM (inactive) | GI50 (HCT-116): > 100 µM (inactive) | GI50 (RPMI-8226): > 100 µM (inactive) | GI50 (NCI-H460): > 100 µM (inactive) | GI50 (SNB-19): > 100 µM (inactive) | GI50 (KM12): > 100 µM (inactive)

CN(C)CCNc1ccc2ncn3c4ccc(O)cc4c(=O)c1c23
GI50 (K562): 0.762 µM (active) | GI50 (M19-MEL): 1.09 µM (active) | GI50 (A498): 0.745 µM (active) | GI50 (CCRF-CEM): 0.171 µM (active) | GI50 (SF-268): 0.893 µM (active) | GI50 (MOLT-4): 0.0258 µM (active) | GI50 (OVCAR-8): 0.646 µM (active) | GI50 (SW-620): 0.281 µM (active) | GI50 (U-251): 0.214 µM (active) | GI50 (MDA-MB-231): 1.67 µM (inactive) | GI50 (LOX IMVI): 0.543 µM (active) | GI50 (HOP-62): 0.153 µM (active) | GI50 (SK-MEL-5): 0.714 µM (active) | GI50 (PC-3): 1.42 µM (inactive) | GI50 (HCT-116): 0.272 µM (active) | GI50 (RPMI-8226): 0.735 µM (active) | GI50 (NCI-H460): 0.0871 µM (active) | GI50 (SNB-19): 0.92 µM (active) | GI50 (KM12): 1.95 µM (inactive)

CCOc1ccc(/C=N\N2C(=O)c3ccccc3C2=O)cc1
GI50 (K562): > 100 µM (inactive) | GI50 (SR): > 100 µM (inactive) | GI50 (M19-MEL): > 100 µM (inactive) | GI50 (A498): > 100 µM (inactive) | GI50 (CCRF-CEM): > 100 µM (inactive) | GI50 (SF-268): > 100 µM (inactive) | GI50 (MOLT-4): > 100 µM (inactive) | GI50 (OVCAR-8): > 100 µM (inactive) | GI50 (SW-620): > 100 µM (inactive) | GI50 (LOX IMVI): > 100 µM (inactive) | GI50 (HOP-62): > 100 µM (inactive) | GI50 (SK-MEL-5): > 100 µM (inactive) | GI50 (HCT-116): > 100 µM (inactive) | GI50 (RPMI-8226): > 100 µM (inactive) | GI50 (NCI-H460): > 100 µM (inactive) | GI50 (SNB-19): > 100 µM (inactive) | GI50 (KM12): > 100 µM (inactive)

CCN1/C(=C/C(C)=C/c2sc3ccccc3[n+]2CC)Sc2ccccc21
GI50 (K562): 0.034 µM (active) | GI50 (SR): 0.181 µM (active) | GI50 (M19-MEL): 0.173 µM (active) | GI50 (A498): 0.381 µM (active) | GI50 (CCRF-CEM): 0.0261 µM (active) | GI50 (SF-268): 0.447 µM (active) | GI50 (MOLT-4): 0.0637 µM (active) | GI50 (OVCAR-8): 0.0948 µM (active) | GI50 (SW-620): 0.122 µM (active) | GI50 (U-251): 0.0378 µM (active) | GI50 (LOX IMVI): 0.135 µM (active) | GI50 (HOP-62): 0.122 µM (active) | GI50 (SK-MEL-5): 0.0925 µM (active) | GI50 (HCT-116): 0.0485 µM (active) | GI50 (RPMI-8226): 0.0223 µM (active) | GI50 (NCI-H460): 0.0621 µM (active) | GI50 (SNB-19): 0.0214 µM (active) | GI50 (KM12): 0.0641 µM (active)

O=C1NN=CN2C(=O)CCC12 (stereo not drawn)
GI50 (K562): > 100 µM (inactive) | GI50 (SR): > 100 µM (inactive) | GI50 (M19-MEL): > 100 µM (inactive) | GI50 (A498): > 100 µM (inactive) | GI50 (CCRF-CEM): > 100 µM (inactive) | GI50 (SF-268): > 100 µM (inactive) | GI50 (MOLT-4): > 100 µM (inactive) | GI50 (OVCAR-8): > 100 µM (inactive) | GI50 (SW-620): > 100 µM (inactive) | GI50 (U-251): > 100 µM (inactive) | GI50 (LOX IMVI): > 100 µM (inactive) | GI50 (HOP-62): > 100 µM (inactive) | GI50 (SK-MEL-5): > 100 µM (inactive) | GI50 (HCT-116): > 100 µM (inactive) | GI50 (RPMI-8226): > 100 µM (inactive) | GI50 (NCI-H460): > 100 µM (inactive) | GI50 (SNB-19): > 100 µM (inactive) | GI50 (KM12): > 100 µM (inactive)

— ChEMBL document CHEMBL1201862, “PubChem BioAssay data set” (2004)
